Source: paper PMC9735679, “Identification and Evolution of a Natural Tetr Protein Based on Molecular Docking and Development of a Fluorescence Polari-Zation Assay for Multi-Detection of 10 Tetracyclines in Milk” (Foods, 2022)
pIC50, pKd: −log10 of the molar value. Like-named read-outs stand apart in the source and are kept apart here.

Experiments:
Format in all cases: binding
natural TetR [1] = biological target: T1, natural TetR (Escherichia coli, UniProt P04483); experiment: Fluorescence polarization assay (FPA) with natural TetR
T1 construct: made in house
Method: (§1) The FPA method was performed as follows. A total of 50 μL mutant, 50 μL TCs solution, and 50 μL fluorescent tracer were added into the wells of a 96-well microplate (in triplicate) and incubated for 2 min. Then the fluorescence polarization (FP) value of each well was recorded (λex 485 nm, λem 528 nm, emission cutoff of 515 nm). During the experiments, the two fluorescent tracers were compared, and several other parameters were optimized, including tracer concentration, mutant concentration, Mg^2+ concentration and incubation time. The 10 TCs and several other classes of drugs were all tested by this method. The competitive curve was developed by plotting the FP/FP0 values (the fluorescence polarization value at each concentration divided by that of zero concentration) versus the concentrations of the TCs (log C). Based on the developed competitive curve, the half of inhibition (IC50) and the limit of detection (IC10) for each drug were determined, respectively.
(§2) This is the first study reporting an FPA method for the determination of TCs. Under the optimal conditions, the 10 TCs were diluted with the extracts of a blank milk sample to be analyzed, respectively. […] During the experiments, the natural TetR was also used to perform the FPA method as described above.

natural TetR [2] = biological target: T1, natural TetR; experiment: Surface plasmon resonance affinity, natural TetR; conditions: for pKd: KD (equilibrium dissociation constant, Kd/Ka); for pKd / koff (dissociation rate constant): SPR
Method: (§3) After the experiments, the association constant (Ka), the dissociation constant (Kd), and the equilibrium dissociation constant (KD = Kd/Ka) for each drug were calculated. For convenience in comparing their affinities, the absolute affinity constant (KA = […]) for each drug was also calculated.

TetR mutant [3] = biological target: T2, TetR mutant (Escherichia coli, UniProt P04483, H139W); experiment: Fluorescence polarization assay (FPA) with TetR mutant; conditions: for LOD (limit of detection, IC10) / inhibition ratio (1-FP/FP0) / FP values at 0 and 100 ng/mL: TetR mutant; for LOD (limit of detection, IC10): FPA, FA-MC tracer, drugs diluted with blank milk extract; for inhibition ratio (1-FP/FP0): 100 ng/mL; for FP values at 0 and 100 ng/mL: either tracer (FITC-MC or FA-MC), specificity test
T2 construct: made in house; host or cells: E. coli Rosetta-gami(BL21), vector pET28a
Method: as §1
For obtaining the best method performance, several parameters were optimized with DMC as the representative. Firstly, the concentrations of FA-MC and the mutant were optimized. During the experiments, the FA-MC and the mutant at different concentrations were mixed with the same concentration of DMC to perform the assay. […] Secondly, the concentration of Mg^2+ (MgCl2) was optimized. […] Thirdly, the competition time was optimized.
as §2

TetR mutant [4] = biological target: T2, TetR mutant; experiment: Surface plasmon resonance affinity, TetR mutant; conditions: SPR; for pKd: KD (equilibrium dissociation constant, Kd/Ka)
Method: as §3
The primers were designed according to the virtual model: mutant for, […]; mutant rev, […]. The amplified gene was inserted into pET28a to construct the express vector that was transformed into E. coli Rosetta-gami(BL21) to express the mutant, and these procedures were according to our recent report. The obtained TetR mutant was characterized by using SDS-PAGE and western blotting according to our recent report, and its recognition ability for the 10 TCs was evaluated by the following FPA method. Furthermore, its recognition mechanisms and affinities for the 10 TCs were also determined as described above.

[5] = read-out: Ka (association constant), TetR without Mg2+, SPR
[6] = read-out: Ka (association constant), TetR+Mg2+, SPR

Structure (SMILES)	pIC50 (natural TetR [1])	pKd (natural TetR [2]; TetR without Mg2+)	pKd (natural TetR [2]; TetR+Mg2+)	koff (dissociation rate constant) (natural TetR [2]; TetR without Mg2+) [s⁻¹]	koff (dissociation rate constant) (natural TetR [2]; TetR+Mg2+) [s⁻¹]	kon (natural TetR [2]; [5]) [M⁻¹ s⁻¹]	kon (natural TetR [2]; [6]) [M⁻¹ s⁻¹]	pIC50 (TetR mutant [3])	LOD (limit of detection, IC10) (TetR mutant [3]) [ng/mL]	pKd (TetR mutant [4]; TetR mutant without Mg2+)	pKd (TetR mutant [4]; TetR mutant+Mg2+)	Dissociation rate constant (koff) (TetR mutant [4]; TetR mutant without Mg2+) [s⁻¹]	Dissociation rate constant (koff) (TetR mutant [4]; TetR mutant+Mg2+) [s⁻¹]	inhibition ratio (1-FP/FP0) (TetR mutant [3]; tracer FA-MC) [%]	inhibition ratio (1-FP/FP0) (TetR mutant [3]; tracer FITC-MC) [%]	FP values at 0 and 100 ng/mL (TetR mutant [3])
CN(C)[C@@H]1C(O)=C(C(N)=O)C(=O)[C@@]2(O)C(O)=C3C(=O)c4c(O)ccc(Cl)c4[C@@](C)(O)[C@H]3C[C@@H]12 [CTC, chlortetracycline]	6.78	5.30	5.59	0.0148	0.0113	2970	4430	6.94	1.4	7.79	8.04	0.000822	0.000404			
C[C@H]1c2cccc(O)c2C(=O)C2=C(O)[C@]3(O)C(=O)C(C(N)=O)=C(O)[C@@H](N(C)C)[C@@H]3[C@@H](O)[C@@H]21 [DC, doxycycline]	7.08	7.68	7.39	0.00113	0.0018	53400	43900	7.17	1.0	9.60	9.19	6.65e-05	0.000113			
CN(C)[C@@H]1C(O)=C(C(N)=O)C(=O)[C@@]2(O)C(O)=C3C(=O)c4c(O)ccc(Cl)c4[C@@H](O)[C@H]3C[C@@H]12 [DMC, demeclocycline]	7.18	7.13	7.56	0.000206	0.000127	2770	4610	7.48	0.4	8.51	10.03	1.72e-05	4.7e-06	69	52	
CN(C)[C@@H]1C(O)=C(C(=O)NCNCCCC[C@H](N)C(=O)O)C(=O)[C@@]2(O)C(O)=C3C(=O)c4c(O)cccc4[C@@](C)(O)[C@H]3C[C@@H]12 [LMC, Lymecycline]	7.03	6.44	6.58	0.00116	0.00121	3170	4590	7.12	1.0	8.60	8.96	7.25e-05	0.00011			
CN(C)c1ccc(O)c2c1C[C@H]1C[C@H]3[C@H](N(C)C)C(O)=C(C(N)=O)C(=O)[C@@]3(O)C(O)=C1C2=O [MC, minocycline]	7.02	6.95	7.15	0.000507	0.000511	4540	7270	7.28	0.5	8.51	9.72	4.23e-05	3.19e-05			
C=C1c2cccc(O)c2C(=O)C2=C(O)[C@]3(O)C(=O)C(C(N)=O)=C(O)[C@@H](N(C)C)[C@@H]3[C@@H](O)[C@H]12 [MTC, Methacycline]	6.94	6.95	6.91	0.00016	0.000162	1440	1330	6.96	1.5	8.40	9.52	5.71e-06	5.59e-06			
CN(C)[C@@H]1C(O)=C(C(N)=O)C(=O)[C@@]2(O)C(O)=C3C(=O)c4c(O)cccc4[C@@](C)(O)[C@H]3[C@H](O)[C@@H]12 [OTC, oxytetracycline]	6.89	6.02	6.39	0.00199	0.00144	2060	3520	7.11	0.8	8.75	8.83	7.96e-05	0.00012			
CN(C)[C@@H]1C(O)=C(C(N)=O)C(=O)[C@@]2(O)C(O)=C3C(=O)c4c(O)cccc4C[C@H]3C[C@@H]12 [SC, Sancycline]	6.98	7.23	7.15	0.000127	0.000162	2140	2310	7.16	0.7	9.23	9.38	6.35e-06	5.79e-06			
CN(C)[C@@H]1C(O)=C(C(N)=O)C(=O)[C@@]2(O)C(O)=C3C(=O)c4c(O)cccc4[C@@](C)(O)[C@H]3C[C@@H]12 [TC, tetracycline]	6.84	5.11	5.32	0.00156	0.00133	203	278	7.07	1.3	6.11	7.21	0.000156	0.000121			
CN(C)c1cc(NC(=O)CNC(C)(C)C)c(O)c2c1C[C@H]1C[C@H]3[C@H](N(C)C)C(O)=C(C(N)=O)C(=O)[C@@]3(O)C(O)=C1C2=O [TIC, tigecycline]	7.28	7.98	7.55	1.04e-05	1.78e-05	1010	633	7.56	0.4	9.98	9.98	9.45e-07	1.78e-06			
CN(C)CCCN1c2ccccc2Sc2ccc(Cl)cc21 [chlorpromazine]																comparably high
O=C(O)c1cn(C2CC2)c2cc(N3CCNCC3)c(F)cc2c1=O [ciprofloxacin]																comparably high
CN1C(=O)CN=C(c2ccccc2)c2cc(Cl)ccc21 [diazepam]																comparably high
[H]/N=C(/N)N[C@H]1[C@H](O)[C@@H](O)[C@H](O[C@@H]2O[C@@H](C)[C@](O)(C=O)[C@H]2O[C@@H]2O[C@@H](CO)[C@H](O)[C@@H](O)[C@@H]2NC)[C@@H](N/C(N)=N\[H])[C@@H]1O [streptomycin]																comparably high
